In one data set the test system is STAT1 human mRNA. In words: Initial screen of siNAs: STAT1 mRNA knock-down in A549 cells (96-well transfection, Taqman RT-PCR). Type of data set: cell-based. Conditions: 10 nM siNA, 24 hrs, normalized against GAPDH, average of 2 experiments. How it is done: A549 (human; ATCC cat# CCL-185): Cells were cultured at 37° C. in the presence of 5% CO2 and grown in Ham's F12K medium with 2 mM L-glutamine adjusted to contain 1.5 g/L sodium bicarbonate and supplemented with fetal bovine serum at a final concentration of 10% and 100 μg/mL of streptomycin and 100 U/mL penicillin.
(§1) Cells were plated in all wells of a tissue-culture treated, 96-well plate at a final count of 5000 cells/well in 100 μL of the appropriate culture media. The cells were cultured for 24 hours after plating at 37° C. in the presence of 5% CO2.
(§2) After 24 hours, complexes containing siNA and RNAiMax were created as follows: A solution of RNAiMax diluted 33-fold in OPTI-MEM was prepared. In parallel, solutions of the siNAs for testing were prepared to a final concentration of 120 nM in OPTI-MEM. After incubation of RNAiMax/OPTI-MEM solution at room temperature for 5 min, an equal volume of the siNA solution and the RNAiMax solution were added together for each of the siNAs.
(§3) This solution was incubated at room temperature for 20 minutes. After incubation, 20 uL of the solution was added to each of the relevant wells. The final concentration of siNA in each well was 10 nM and the final volume of RNAiMax in each well was 0.3 ul.
(§4) The time of incubation with the RNAiMax-siNA complexes was 24 hours and there was no change in media between transfection and harvesting, unless otherwise indicated.
(§5) RNA was extracted from a 96-well plate using the TaqMan® Gene Expression Cells-to-CT™ Kit (Cat# 4399002) with a modified protocol. Briefly, a 60 uL (1 plate) or 110 uL (2 plates) of the Lysis Solution with DNase I was dispensed into each well of the Lysis Buffer Plate (twin.tec full skirt plate). The lysis buffer and stop plates were stored at 4° C. until the cells were washed.
(§6) The culture medium was aspirated and discarded from the wells of the culture plate. 50 uL of chilled DPBS was added to each well, then aspirated and discarded. The lysis was performed automatically using a BioMek FX instrument and method. After the Biomek method was completed, the lysis plate was incubated for 2 min at room temperature. The lysis plate can be stored for 2 hours at 4° C., or at −20° C. or −80° C. for two months.
(§7) Each well of the reverse transcription plate required 10 uL of 2× reverse transcriptase Buffer, 1 uL of 20× reverse transcription enzyme and 2 uL of nuclease-free water. The reverse transcription master mix was prepared by mixing 2× reverse transcription buffer, 20× reverse transcription enzyme mix, and nuclease-free water. 13 uL of the reverse transcription master mix was dispensed into each well of the reverse transcription plate (semi-skirted). A separate reverse transcription plate was prepared for each cell plate. The plate was loaded onto a Biomek NX or Biomek FX Dual-96 and the Biomek method was run. The program is programmed to automatically added 7 uL of lysate from the cell lysis procedure described above into each well of the reverse transcription plate. The plate is sealed and spun on a centrifuge (1000 rpm for 30 seconds) to settle the contents to the bottom of the reverse transcription plate. The plate is placed in a thermocycler at 37° C. for 60 min, 95° C. for 5 min, and 4° C. until the plate is removed from the thermocycler. Upon removal, if not used immediately, the plate was frozen at −20° C.
(§8) A series of probes and primers were used to detect the various mRNA transcripts of the genes of β-Actin (human cell line only), and of STAT1 and GAPDH in mouse and human cell lines. All Taqman probes and primers for the experiments here-in described were supplied as pre-validated sets by Applied Biosystems, Inc. (see Table 2).
The assays were performed on an ABI 7900 instrument, according to the manufacturer's instructions.
Within each experiment, the baseline was set in the exponential phase of the amplification curve, and based on the intersection point of the baselines with the amplification curve, a Ct value was assigned by the instrument. […]
On the technique in general: Real-time PCR tracks product formation cycle by cycle.

The test system of the next data set is STAT1 mouse mRNA. In words: Initial screen of siNAs: STAT1 mRNA knock-down in NIH 3T3 cells (96-well transfection, Taqman RT-PCR). Conditions: 10 nM siNA, 24 hrs, normalized against GAPDH, average of 2 experiments. Type of data set: cell-based. How it is done: NIH 3T3 (mouse; ATCC cat# CRL-1658): Cells were cultured at 37° C. in the presence of 5% CO2 and grown in Dulbecco's modified Eagle's medium (DMEM) with 4 mM L-glutamine adjusted to contain 1.5 g/L sodium bicarbonate and 4.5 g/L glucose and supplemented with fetal bovine serum at a final concentration of 10%, 100 μg/mL of streptomycin, and 100 U/mL penicillin.
as §1, §2, §3, §4, §5, §6, §7, §8
The assays were performed on an ABI 7900 instrument, according to the manufacturer's instructions. […]

[invAb] = inverted abasic unit; d = 2'-deoxy (DNA); m = 2'-O-methyl; r = 2'-OH (RNA); f = 2'-fluoro

Turning to “25359-DC: STAT1 siNA duplex, human target site 268; modified strands SEQ ID NO: 55 and 56 (chain 1 CGACAGUCUUGGCACCUAATT; chain 2 UUAGGUGCCAAGACUGUCGUU; chain 1: DNA at AGT, 2'-fluoro at CU, [invAb] at 5' end, 3' end, backbone not given here; chain 2: sugars from the 5' end rrrmmfmffmmmmffmffmmm, backbone not given here)”, the “% KD Human” value in the data set with STAT1 human mRNA turned out to be 88%. For the same substance, in the data set on STAT1 mouse mRNA, the “% KD Mouse” value worked out at 47%.

In the case of “25360-DC: STAT1 siNA duplex, human target site 1793; modified strands SEQ ID NO: 57 and 58 (chain 1 CCAGGAAUCUGUCCUUCUUTT; chain 2 AAGAAGGACAGAUUCCUGGUU; chain 1: DNA at AGT, 2'-fluoro at CU, [invAb] at 5' end, 3' end, backbone not given here; chain 2: sugars from the 5' end rrrmmmmmfmmmfffffmmmm, backbone not given here)”, the “% KD Human” value in the data set on STAT1 human mRNA is given as 90%. In the data set with STAT1 mouse mRNA, the “% KD Mouse” value was 73%.

In the case of “25361-DC: STAT1 siNA duplex, human target site 1104; modified strands SEQ ID NO: 59 and 60 (chain 1 GCCCAAUGCUUGCUUGGAUTT; chain 2 AUCCAAGCAAGCAUUGGGCUU; chain 1: DNA at AGT, 2'-fluoro at CU, [invAb] at 5' end, 3' end, backbone not given here; chain 2: sugars from the 5' end rrrfmmmfmmmfmffmmmfmm, backbone not given here)”, in the data set with STAT1 human mRNA, the “% KD Human” value came to 92%. In addition, the “% KD Mouse” value in the data set on STAT1 mouse mRNA stood at 35%.

In the case of “25362-DC: STAT1 siNA duplex, human target site 222; modified strands SEQ ID NO: 61 and 62 (chain 1 CUCGAGAGCUGUCUAGGUUTT; chain 2 AACCUAGACAGCUCUCGAGUU; chain 1: DNA at AGT, 2'-fluoro at CU, [invAb] at 5' end, 3' end, backbone not given here; chain 2: sugars from the 5' end rrrffmmmfmmfffffmmmmm, backbone not given here)”, the “% KD Human” value in the data set on STAT1 human mRNA amounted to 87%. In addition, in the data set with STAT1 mouse mRNA, the “% KD Mouse” value is 45%.

For “25363-DC: STAT1 siNA duplex, human target site 480; modified strands SEQ ID NO: 63 and 64 (chain 1 GGAGCACGCUGCCAAUGAUTT; chain 2 AUCAUUGGCAGCGUGCUCCUU; chain 1: DNA at AGT, 2'-fluoro at CU, [invAb] at 5' end, 3' end, backbone not given here; chain 2: sugars from the 5' end rrrmffmmfmmfmfmffffmm, backbone not given here)”, the “% KD Human” value with STAT1 human mRNA was determined as 83%. For the same substance, the “% KD Mouse” value in the data set with STAT1 mouse mRNA came out at 72%.

With “25364-DC: STAT1 siNA duplex, human target site 674; modified strands SEQ ID NO: 65 and 66 (chain 1 GUCUGAAGGAAGAAAGGAATT; chain 2 UUCCUUUCUUCCUUCAGACUU; chain 1: sugars from the 5' end d1 f3 d17, [invAb] at 5' end, 3' end, backbone not given here; chain 2: sugars from the 5' end r3 f12 m3 f1 m2, backbone not given here)”, the “% KD Human” value with STAT1 human mRNA stood at 88%. In the data set with STAT1 mouse mRNA, the “% KD Mouse” value is listed as 83%.

With “25365-DC: STAT1 siNA duplex, human target site 431; modified strands SEQ ID NO: 67 and 68 (chain 1 CCAUGGAAAUCAGACAGUATT; chain 2 UACUGUCUGAUUUCCAUGGUU; chain 1: DNA at AGT, 2'-fluoro at CU, [invAb] at 5' end, 3' end, backbone not given here; chain 2: sugars from the 5' end rrrfmfffmmfffffmfmmmm, backbone not given here)”, the “% KD Human” value in the data set with STAT1 human mRNA is on record as 87%. Also, in the data set on STAT1 mouse mRNA, the “% KD Mouse” value came out at 80%.

With “25366-DC: STAT1 siNA duplex, human target site 965; modified strands SEQ ID NO: 69 and 70 (chain 1 UGCUUGACAAUAAGAGAAATT; chain 2 UUUCUCUUAUUGUCAAGCAUU; chain 1: DNA at AGT, 2'-fluoro at CU, [invAb] at 5' end, 3' end, backbone not given here; chain 2: sugars from the 5' end rrrfffffmffmffmmmfmmm, backbone not given here)”, the “% KD Human” value in the data set with STAT1 human mRNA was determined as 88%. Also, the “% KD Mouse” value with STAT1 mouse mRNA turned out to be 86%.

Regarding “25370-DC: STAT1 siNA duplex, human target site 785; modified strands SEQ ID NO: 77 and 78 (chain 1 AAGUCAGAAAUGUGAAGGATT; chain 2 UCCUUCACAUUUCUGACUUUU; chain 1: DNA at AGT, 2'-fluoro at CU, [invAb] at 5' end, 3' end, backbone not given here; chain 2: sugars from the 5' end rrrfffmfmfffffmmfffmm, backbone not given here)”, the “% KD Human” value in the data set on STAT1 human mRNA was 84%. The “% KD Mouse” value in the data set on STAT1 mouse mRNA worked out at 76%.

Take “25371-DC: STAT1 siNA duplex, human target site 432; modified strands SEQ ID NO: 79 and 80 (chain 1 CAUGGAAAUCAGACAGUACTT; chain 2 GUACUGUCUGAUUUCCAUGUU; chain 1: DNA at AGT, 2'-fluoro at CU, [invAb] at 5' end, 3' end, backbone not given here; chain 2: sugars from the 5' end rrrffmfffmmfffffmfmmm, backbone not given here)”: in the data set on STAT1 human mRNA, the “% KD Human” value turned out to be 89%. Further, the “% KD Mouse” value in the data set with STAT1 mouse mRNA was found to be 85%.

In the case of “25373-DC: STAT1 siNA duplex, human target site 2160; modified strands SEQ ID NO: 83 and 84 (chain 1 CAGUGAGAGCUCCCGGGAATT; chain 2 UUCCCGGGAGCUCUCACUGUU; chain 1: DNA at AGT, 2'-fluoro at CU, [invAb] at 5' end, 3' end, backbone not given here; chain 2: sugars from the 5' end rrrffmmmmmfffffmffmmm, backbone not given here)”, the “% KD Human” value in the data set on STAT1 human mRNA is reported as 30%. Also, the “% KD Mouse” value in the data set on STAT1 mouse mRNA was 24%.

Source of the values: US20120022142A1, “RNA Interference Mediated Inhibition of Signal Transducer and Activator of Transcription 1 (STAT1) Gene Expression Using Short Interfering Nucleic Acid (siNA)” (Merck Sharp & Dohme Corp., priority 2009, published 2012).
